Source: patent US20230203041A1, “ANTAGONISTS OF THE ADENOSINE A2A RECEPTOR” (AdoRx Therapeutics Limited, priority 2020, published 2023)

Experiments:
[1] = tested on: CD8+ T cells in human whole blood; assay: Measurement of pCREB in CD8+ T cells in human whole blood; type: cell-based; conditions: T-cell, 1 h; heparinised human whole blood, rolipram, 3 μM NECA, 60 min, phospho-CREB in CD8+ T cells by FACS
Method: Heparinised human whole blood was pre-incubated at 37° C. with serial dilutions of A2a antagonists for 20 min. and the phosphodiesterase inhibitor rolipram to amplify the pCREB response. The adenosine receptor agonist NECA is then added at a final concentration of 3 μM and following a 60 min incubation the blood is fixed and red blood cells lysed. White blood cells are isolated, permeabilized and stained with directly conjugated fluorescent antibodies to phospho-CREB (Alexa Fluor 488) and CD8 (Alexa Fluor 647) and the level of phospho-CREB in CD8+ T cells is measured by FACS using a BD Accuri C6 Flow Cytometer.

[2] = biological target: T1, human Adenosine A2a receptor (Homo sapiens, UniProt P29274); assay: Adenosine receptor TR-FRET binding assay (CA200645 displacement), A2a; conditions: 100 nM CA200645, CHO cell membranes, 2 hours at room temperature
T1 construct: expressed in transfected cells; host or cells: CHO cell membranes
T1 sequence (P29274 whole entry): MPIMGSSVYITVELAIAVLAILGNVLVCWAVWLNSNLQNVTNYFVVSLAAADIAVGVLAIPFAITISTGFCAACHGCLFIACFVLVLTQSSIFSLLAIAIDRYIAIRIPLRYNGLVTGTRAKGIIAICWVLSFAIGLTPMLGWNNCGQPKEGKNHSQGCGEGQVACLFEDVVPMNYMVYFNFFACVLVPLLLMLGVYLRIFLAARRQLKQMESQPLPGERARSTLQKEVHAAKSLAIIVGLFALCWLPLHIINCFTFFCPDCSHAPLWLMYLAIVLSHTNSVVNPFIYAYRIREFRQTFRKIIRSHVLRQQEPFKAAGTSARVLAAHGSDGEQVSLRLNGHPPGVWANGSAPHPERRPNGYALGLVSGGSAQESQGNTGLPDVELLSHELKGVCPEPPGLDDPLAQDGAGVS

[3] = biological target: T2, human Adenosine A2b receptor (Homo sapiens, UniProt P29275); assay: Adenosine receptor TR-FRET binding assay (CA200645 displacement), A2b; conditions: 30 nM CA200645, CHO cell membranes, 2 hours at room temperature
T2 construct: expressed in transfected cells; host or cells: CHO cell membranes
T2 sequence (P29275 1-332): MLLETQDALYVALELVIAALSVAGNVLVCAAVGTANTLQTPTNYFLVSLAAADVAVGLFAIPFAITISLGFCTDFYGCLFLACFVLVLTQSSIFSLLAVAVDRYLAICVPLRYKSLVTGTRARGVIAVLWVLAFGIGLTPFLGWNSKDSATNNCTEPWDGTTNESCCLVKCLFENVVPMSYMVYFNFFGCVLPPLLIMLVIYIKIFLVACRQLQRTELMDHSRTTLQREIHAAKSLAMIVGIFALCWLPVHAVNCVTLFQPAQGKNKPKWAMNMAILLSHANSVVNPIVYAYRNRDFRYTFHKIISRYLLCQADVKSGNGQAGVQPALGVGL

[4] = biological target: T3, human Adenosine A1 receptor (Homo sapiens, UniProt P30542); assay: Adenosine receptor TR-FRET binding assay (CA200645 displacement), A1
T3 sequence (P30542 1-326): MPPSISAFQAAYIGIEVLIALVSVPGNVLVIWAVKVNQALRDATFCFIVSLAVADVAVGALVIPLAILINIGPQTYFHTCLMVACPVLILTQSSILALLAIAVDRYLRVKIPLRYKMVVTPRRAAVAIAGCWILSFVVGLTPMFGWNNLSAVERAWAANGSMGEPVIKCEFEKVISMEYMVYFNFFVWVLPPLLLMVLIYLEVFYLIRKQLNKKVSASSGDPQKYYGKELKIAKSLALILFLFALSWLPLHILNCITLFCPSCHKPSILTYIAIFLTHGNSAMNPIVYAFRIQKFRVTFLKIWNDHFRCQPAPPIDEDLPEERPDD

[5] = biological target: T4, human Adenosine A3 receptor (Homo sapiens, UniProt P0DMS8); assay: Adenosine receptor TR-FRET binding assay (CA200645 displacement), A3
T4 sequence (P0DMS8 1-318): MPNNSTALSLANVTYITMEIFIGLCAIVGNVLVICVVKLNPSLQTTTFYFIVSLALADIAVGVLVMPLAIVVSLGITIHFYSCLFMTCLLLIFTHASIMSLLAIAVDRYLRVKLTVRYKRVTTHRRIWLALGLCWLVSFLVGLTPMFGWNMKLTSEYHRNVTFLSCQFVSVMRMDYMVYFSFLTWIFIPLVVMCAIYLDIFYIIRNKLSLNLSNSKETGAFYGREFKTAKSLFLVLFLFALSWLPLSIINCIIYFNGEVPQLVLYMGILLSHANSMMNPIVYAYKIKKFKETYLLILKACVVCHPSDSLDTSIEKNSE

human PBMCs = assay: CD3/CD28 stimulated IL-2 release NECA reversal assay in human PBMCs; type: cell-based; conditions: PBMC, CD3/CD28 antibody stimulated, 1 uM NECA, 24 hours, IL-2 in culture supernatant;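 further: dose-response as % inhibition where 100% equals no-NECA control wells with CD3/CD28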
Method: Blood is drawn from healthy volunteers using sodium citrate as the anticoagulant (0.3% final concentration). After centrifugation of the blood over Histopaque-1077, PBMCs are collected from the Histopaque/plasma interface and washed twice in PBS (300 g for 10 mins at room temp). Cells are plated at 50,000 cells/well in 150 μl RPMI/10% FCS in 96-well cell culture plates that have been precoated with 1 ug/ml CD3 antibody. 50 μl diluted compound mix is added to the cells, to obtain final concentrations of 1 ug/ml CD28 antibody, 1 uM NECA and 0.003-10 μM adenosine receptor antagonist. Assay plates are incubated for 24 hours at 37° C. in a humidified incubator. Culture supernatant is tested for IL-2 levels using the human IL-2 Tissue Culture Kit (Meso Scale Discovery).

Structure (SMILES)	IC50 [1] [µM]	Ki [2] [µM]	Ki [3] [µM]	Ki [4] [µM]	Ki [5] [µM]	IC50 (human PBMCs) [µM]
Cc1cc(-c2c(-c3cccc(C#N)c3)nn3ccc(OCC(C)(C)O)nc23)cc(Cl)n1 [Example 15, 3-[3-(2-Chloro-6-methyl-4-pyridyl)-5-(2-hydroxy-2-methyl-propoxy)pyrazolo[1,5-a]pyrimidin-2-yl]benzonitrile]	0.38	0.0012	0.009	0.046	1.92	0.002
Cc1cc(-c2c(-c3cccc(C#N)c3)nn3ccc(N[C@@H]4CCCNC4)nc23)cc(Cl)n1 [Example 4.2]	2.03	0.0012	0.034	0.032	> 1	0.054
Cc1cc(-c2c(-c3cccc(C#N)c3)nn3ccc(NC(=O)C(C)(C)O)nc23)cc(Cl)n1 [Example 94, N-[3-(2-Chloro-6-methyl-4-pyridyl)-2-(3-cyanophenyl)pyrazolo[1,5-a]pyrimidin-5-yl]-2-hydroxy-2-methyl-propanamide]	1.72	0.001	0.003	0.124	> 1	0.027
Cc1cc(-c2c(-c3cccc(C#N)c3)nn3ccc(NC(=O)C(C)(C)O)nc23)cc(C)n1 [Example 94.5, N-[2-(3-cyanophenyl)-3-(2,6-dimethyl-4-pyridyl)pyrazolo[1,5-a]pyrimidin-5-yl]-2-hydroxy-2-methyl-propanamide]	0.59	0.0037	0.02	0.145	> 1	0.016
Cc1cc(-c2c(-c3cccc(C#N)c3)nn3ccc(C(=O)N[C@H](C)C(C)(C)O)nc23)cc(Cl)n1 [Example 6.4, 3-(2-Chloro-6-methyl-4-pyridyl)-2-(3-cyanophenyl)-N-[(1 R)-2-hydroxy-1,2-dimethyl-propyl]pyrazolo[1,5-a]pyrimidine-5-carboxamide]	0.43	0.0006	0.03	0.402	1.82	0.006
Cc1cc(-c2c(-c3cccc(C#N)c3)nn3ccc(N4CCO[C@@H](C(=O)O)C4)nc23)cc(Cl)n1 [Example 2.24]	2.76	0.0069	0.058	0.255		0.092
Cc1cc(-c2c(-c3cccc(C#N)c3)nn3ccc(C(=O)N[C@@H]4COC[C@]4(C)O)nc23)cc(C)n1 [Example 92.12]	0.15	0.0008	0.044	0.274	> 1	
Cc1cc(-c2c(-c3cccc(C#N)c3)nn3ccc(C(=O)NC(C)(C)C)nc23)cc(N)n1 [Example 91, 3-(2-Amino-6-methyl-4-pyridyl)-N-tert-butyl-2-(3-cyanophenyl)pyrazolo [1,5-a]pyrimidine-5-carboxamide]	0.34	0.0002	0.071	0.102	1.04	
Cc1cc(-c2c(-c3cccc(C#N)c3)nn3ccc(C(=O)N[C@H]4CC[C@](C)(O)CC4)nc23)cc(C)n1 [Example 92.22]	0.37	0.0006	0.029	0.204	> 1	
Cc1cc(-c2c(-c3cccc(C#N)c3)nn3ccc(C(=O)N[C@H](C)C(C)(C)O)nc23)cc(C)n1 [Example 92.10]	0.15	0.0005	0.117	0.591	> 1	
Cc1cc(-c2c(-c3cccc(C#N)c3)nn3ccc(C(=O)N[C@@H]4COC[C@@]4(C)O)nc23)cc(C)n1 [Example 92.13]	0.1	0.001	0.101	0.282	> 1	
Cc1cc(-c2c(-c3cccc(C#N)c3)nn3ccc(N[C@H](C)CO)nc23)cc(Cl)n1 [Example 3.3]	0.21	0.0003	0.002		> 1	0.001
Cc1cc(-c2c(-c3cccc(C#N)c3)nn3ccc(C(=O)NCC4CCCN(C)C4=O)nc23)cc(C)n1 (stereo not shown) [Example 92.14]	0.06	0.0004	0.01	0.079	> 1	
Cc1cc(-c2c(-c3cccc(C#N)c3)nn3ccc(C(=O)N[C@H]4C[C@@](C)(O)C4)nc23)cc(C)n1 [Example 92.24]	0.33	0.0013	0.023	0.347	> 1	
Cc1cc(-c2c(-c3cccc(C#N)c3)nn3ccc(C(=O)NOCC(C)(C)O)nc23)cc(C)n1 [Example 92.11]	2.1	0.0015	0.021	0.217	> 1	
Cc1cc(-c2c(-c3cccc(C#N)c3)nn3ccc(C(=O)NCC4(C)COC(=O)N4)nc23)cc(C)n1 (stereo not shown) [Example 92.21]	0.11	0.0007	0.017	0.288	> 1	
O=Cc1c(-c2ccco2)nn2ccc(NCc3ccccc3)nc12 [Example 47, 5-(Benzylamino)-2-(2-furyl)pyrazolo[1,5-a]pyrimidine-3-carbaldehyde]		0.0052	0.483	0.174	0.51	0.14
CC(C)(C)OC(=O)N1CCO[C@@H](CNc2ccn3nc(-c4ccco4)c(C#N)c3n2)C1 [Example 37.1]		0.0133	0.046	0.045	2.09	0.477
Brc1c(-c2ccco2)nn2ccc(NCc3ccccc3)nc12 [Example 44, N-Benzyl-3-bromo-2-(2-furyl)pyrazolo[1,5-a]pyrimidin-5-amine]		0.0034	2.85	0.141	0.025	0.501
COCC(C)(C#N)NC(=O)c1ccn2nc(-c3cccc(C#N)c3)c(-c3cc(C)nc(Cl)c3)c2n1 (stereo not shown) [Example 6.11, 3-(2-Chloro-6-methyl-4-pyridyl)-N-(1-cyano-2-methoxy-1-methyl-ethyl)-2-(3-cyanophenyl)pyrazolo[1,5-a]pyrimidine-5-carboxamide]	0.02	0.0001	0.003	0.032	0.379	
Cc1cc(-c2c(-c3cccc(C#N)c3)nn3ccc(C(=O)N[C@H]4CN(C)C[C@H]4O)nc23)cc(C)n1 [Example 92.34]	0.14	0.0015	0.032	0.428	> 1	
N#Cc1cccc(-c2nn3ccc(N)nc3c2-c2ccncc2)c1 [Example 1, 3-[5-Amino-3-(4-pyridyl)pyrazolo[1,5-a]pyrimidin-2-yl]benzonitrile]	2.01	0.0021	0.002	0.003		0.305
